In ChEMBL document CHEMBL1123652, “Optimization and in vivo evaluations of a series of small, potent, and specific renin inhibitors containing a novel Leu-Val replacement” (J Med Chem, 1987):

Assays:
Pepsin A (Sus scrofa) [1] = biological target: Pepsin A (Sus scrofa) (UniProt P00791); test: Evaluated for the percentage of inhibition of porcine pepsin at E-5M concentration
Cathepsin D (Bos taurus) [2] = biological target: T1, Cathepsin D (Bos taurus) (UniProt P80209); test: Evaluated for the percentage of inhibition of bovine cathepsin D at E-5M concentration
T1 sequence (whole entry): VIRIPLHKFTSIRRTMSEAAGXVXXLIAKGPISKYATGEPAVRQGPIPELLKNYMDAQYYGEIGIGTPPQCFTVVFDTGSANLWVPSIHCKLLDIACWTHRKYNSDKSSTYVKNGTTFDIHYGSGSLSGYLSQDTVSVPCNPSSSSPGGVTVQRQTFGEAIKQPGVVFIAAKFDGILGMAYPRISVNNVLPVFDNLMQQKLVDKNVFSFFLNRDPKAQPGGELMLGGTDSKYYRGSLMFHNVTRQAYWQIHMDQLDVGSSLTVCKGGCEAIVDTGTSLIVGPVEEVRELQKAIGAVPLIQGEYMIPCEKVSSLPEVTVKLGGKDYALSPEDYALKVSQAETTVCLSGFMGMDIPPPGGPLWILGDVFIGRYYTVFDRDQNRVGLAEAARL

Renin = biological target: T2, Renin (Homo sapiens, UniProt P00797); test: Evaluated in vitro for inhibitory potency against renin.
T2 sequence (P00797 whole entry): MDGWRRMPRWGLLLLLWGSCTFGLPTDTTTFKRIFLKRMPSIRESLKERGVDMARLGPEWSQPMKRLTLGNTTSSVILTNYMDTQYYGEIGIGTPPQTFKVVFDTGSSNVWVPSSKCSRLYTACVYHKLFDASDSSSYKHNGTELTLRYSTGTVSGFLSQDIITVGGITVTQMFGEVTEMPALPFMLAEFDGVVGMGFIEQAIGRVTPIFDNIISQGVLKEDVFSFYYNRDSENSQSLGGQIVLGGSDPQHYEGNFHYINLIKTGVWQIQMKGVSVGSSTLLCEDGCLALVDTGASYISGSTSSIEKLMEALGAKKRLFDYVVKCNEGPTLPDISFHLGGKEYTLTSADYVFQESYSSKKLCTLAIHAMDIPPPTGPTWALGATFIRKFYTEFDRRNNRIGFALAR

Renin (Homo sapiens) [3] = biological target: T3, Renin (Homo sapiens) (UniProt P00797); test: Evaluated in vitro for inhibitory potency against renin at 10e-6 M
T3 sequence (whole entry): T2 sequence (P00797 whole entry)

Renin (Homo sapiens) [4] = biological target: T3, Renin (Homo sapiens); test: Evaluated in vitro for inhibitory potency against renin at 10e-5 M
Pepsin A (Sus scrofa) [5] = biological target: Pepsin A (Sus scrofa) (UniProt P00791); test: Compound is evaluated for the percentage of inhibition of […] 10 e-5M concentration in porcine pepsin
Cathepsin D (Bos taurus) [6] = biological target: T1, Cathepsin D (Bos taurus); test: Compound is evaluated for the percentage of inhibition of […] 10e-5 M concentration in, bovine cathepsin D

Chain of Pepsin A (Sus scrofa) (P00791 60-385 limits assumed): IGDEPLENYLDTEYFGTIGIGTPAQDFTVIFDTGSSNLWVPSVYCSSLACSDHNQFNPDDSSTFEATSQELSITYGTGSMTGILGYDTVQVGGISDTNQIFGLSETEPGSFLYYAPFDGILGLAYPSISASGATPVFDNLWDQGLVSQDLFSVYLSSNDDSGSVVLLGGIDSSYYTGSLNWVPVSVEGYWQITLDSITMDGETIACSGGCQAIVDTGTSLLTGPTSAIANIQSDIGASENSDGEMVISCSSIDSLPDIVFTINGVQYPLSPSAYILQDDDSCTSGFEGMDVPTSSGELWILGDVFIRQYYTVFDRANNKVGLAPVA

SMILES | inhibition (Pepsin A (Sus scrofa) [1]) [%] | inhibition (Cathepsin D (Bos taurus) [2]) [%] | IC50 (Renin) [µM] | also measured
O=C(NC(Cc1c[nH]cn1)C(=O)N[C@@H](CC1CCCCC1)[C@@H](O)CSC1CCCCC1)C(Cc1ccccc1)Cc1ccccc1 (stereo not given in full) | 0 | 0 |  | 
CC(C)S(=O)(=O)C[C@H](O)[C@H](CC1CCCCC1)NC(=O)C(Cc1cnc[nH]1)NC(=O)C(Cc1ccccc1)Cc1ccccc1 (stereo not given in full) |  |  | 0.07 | 
CC(C)S(=O)(=O)C[C@H](O)[C@H](CC1CCCCC1)NC(=O)C(Cc1c[nH]cn1)NC(=O)C(Cc1ccccc1)Cc1ccccc1 (stereo not given in full) | 0 | 0 |  | 
CC(C)S(=O)(=O)C[C@H](O)[C@H](CC1CCCCC1)NC(=O)[C@H](Cc1ccccc1)NC(=O)[C@H](Cc1ccccc1)NC(=O)OC(C)(C)C | 4 | 0 | 0.03 | 
CC(C)(C)OC(=O)N[C@@H](Cc1ccccc1)C(=O)N[C@@H](Cc1c[nH]cn1)C(=O)N[C@@H](CC1CCCCC1)[C@@H](O)CS(C)(=O)=O |  |  | 0.04 | 
CC(C)S(=O)(=O)C[C@H](O)[C@H](CC1CCCCC1)NC(=O)[C@H](CCCNC(=O)OCc1ccccc1)NC(=O)[C@H](Cc1ccccc1)NC(=O)OC(C)(C)C |  |  | 0.06 | 
CC(C)S(=O)(=O)C[C@H](O)[C@H](CC1CCCCC1)NC(=O)[C@H](CCCN)NC(=O)[C@H](Cc1ccccc1)NC(=O)OC(C)(C)C |  |  |  | inhibition (Renin (Homo sapiens) [3]): 43%
CC(C)(C)OC(=O)NC(Cc1c[nH]cn1)C(=O)N[C@@H](CC1CCCCC1)[C@@H](O)CS(=O)(=O)C1CCCCC1 (stereo not given in full) |  |  |  | inhibition (Renin (Homo sapiens) [4]): 5%
O=C(NC(Cc1cnc[nH]1)C(=O)N[C@@H](CC1CCCCC1)[C@@H](O)CS(=O)(=O)C1CCCCC1)C(Cc1ccccc1)Cc1ccccc1 (stereo not given in full) |  |  | 0.04 | 
CC(C)S(=O)(=O)C[C@H](O)[C@H](CC1CCCCC1)NC(=O)[C@H](CO)NC(=O)[C@H](Cc1ccccc1)NC(=O)OC(C)(C)C | 0 | 47 | 0.04 | 
CC(=O)NCCCC[C@H](NC(=O)[C@H](Cc1ccccc1)NC(=O)OC(C)(C)C)C(=O)N[C@@H](CC1CCCCC1)[C@@H](O)CS(=O)(=O)C(C)C |  |  | 0.3 | 
CC(C)(C)OC(=O)N[C@@H](Cc1ccccc1)C(=O)N[C@@H](Cc1c[nH]cn1)C(=O)N[C@@H](CC1CCCCC1)[C@H](O)CSC1CCCCC1 |  |  | 0.1 | 
CC(C)S(=O)(=O)C[C@H](O)[C@H](CC1CCCCC1)NC(=O)[C@H](CCCCNC(=O)OCc1ccccc1)NC(=O)[C@H](Cc1ccccc1)NC(=O)OC(C)(C)C |  |  | 0.1 | 
O=C(COc1ccccc1)NC(Cc1c[nH]cn1)C(=O)N[C@@H](CC1CCCCC1)[C@@H](O)CSC1CCCCC1 (stereo not given in full) |  |  | 0.43 | 
CC(C)S(=O)(=O)C[C@H](O)[C@H](CC1CCCCC1)NC(=O)[C@H](CCCCN)NC(=O)[C@H](Cc1ccccc1)NC(=O)OC(C)(C)C |  |  |  | inhibition (Renin (Homo sapiens) [3]): 34%
CC(C)S(=O)(=O)C[C@H](O)[C@H](CC1CCCCC1)NC(=O)C(Cc1c[nH]cn1)NC(=O)[C@@H](Cc1ccccc1)NC(=O)OC(C)(C)C (stereo not given in full) | 0 | 0 | 0.15 | 
CC(C)S(=O)(=O)C[C@H](O)[C@H](CC1CCCCC1)NC(=O)[C@H](Cc1c[nH]cn1)NC(=O)[C@@H](N)[C@@H](C)OCc1ccccc1 |  |  | 0.3 | 
CC(C)S(=O)(=O)C[C@H](O)[C@H](CC1CCCCC1)NC(=O)[C@H](C)NC(=O)[C@H](Cc1ccccc1)NC(=O)OC(C)(C)C | 0 | 55 | 0.07 | 
CC(C)S(=O)(=O)C[C@H](O)[C@H](CC1CCCCC1)NC(=O)[C@H](Cc1c[nH]cn1)NC(=O)[C@H](COCc1ccccc1)NC(=O)OC(C)(C)C |  |  | 0.075 | 
CC(C)S(=O)(=O)C[C@H](O)[C@H](CC1CCCCC1)NC(=O)[C@H](Cc1c[nH]cn1)NC(=O)[C@H](Cc1ccccc1)NC(=O)CC(C)(C)C [listing 2 of 3 here] | 0 | 0 |  | 

More lines, in order of falling IC50 (Renin), values ahead:

inhibition (Pepsin A (Sus scrofa) [1]) [%] | inhibition (Cathepsin D (Bos taurus) [2]) [%] | IC50 (Renin) [µM] | SMILES | also measured
 |  | 0.025 | CC(C)CC(NC(=O)C(Cc1ccccc1)Cc1ccccc1)C(=O)N[C@@H](CC1CCCCC1)[C@@H](O)CS(=O)(=O)C(C)C (stereo not given in full) | 
 |  | 0.02 | CCOC(=O)N[C@H](C(=O)N[C@@H](Cc1c[nH]cn1)C(=O)N[C@@H](CC1CCCCC1)[C@@H](O)CS(=O)(=O)C(C)C)[C@@H](C)OCc1ccccc1 | 
 |  | 0.02 | CC(C)S(=O)(=O)C[C@H](O)[C@H](CC1CCCCC1)NC(=O)[C@H](CCO)NC(=O)[C@H](Cc1ccccc1)NC(=O)OC(C)(C)C | 
 |  | 0.02 | O=C(NC(Cc1cnc[nH]1)C(=O)N[C@@H](CC1CCCCC1)[C@@H](O)CSC1CCCCC1)C(Cc1ccccc1)Cc1ccccc1 (stereo not given in full) | 
4 | 0 | 0.015 | CC(C)(C)OC(=O)N[C@@H](Cc1ccccc1)C(=O)N[C@@H](Cc1c[nH]cn1)C(=O)N[C@@H](Cc1ccccc1)[C@@H](O)CSC1CCCCC1 | 
 |  | 0.01 | CC(C)C(=O)N[C@H](C(=O)N[C@@H](Cc1c[nH]cn1)C(=O)N[C@@H](CC1CCCCC1)[C@@H](O)CS(=O)(=O)C(C)C)[C@@H](C)OCc1ccccc1 | 
 |  | 0.01 | CSC[C@H](O)[C@H](CC1CCCCC1)NC(=O)[C@H](Cc1c[nH]cn1)NC(=O)[C@H](Cc1ccccc1)NC(=O)OC(C)(C)C | 
 |  | 0.0099 | CC(C)SC[C@H](O)[C@H](CC1CCCCC1)NC(=O)[C@H](C)NC(=O)[C@H](Cc1ccccc1)NC(=O)OC(C)(C)C | 
 |  | 0.008 | CC(C)S(=O)(=O)C[C@H](O)[C@H](CC1CCCCC1)NC(=O)[C@@H](NC(=O)[C@H](Cc1ccccc1)NC(=O)OC(C)(C)C)[C@@H](C)O | 
 |  | 0.0065 | CC(C)CSC[C@H](O)[C@H](CC1CCCCC1)NC(=O)[C@H](Cc1c[nH]cn1)NC(=O)[C@H](Cc1ccccc1)NC(=O)OC(C)(C)C | 
18 | 95 | 0.006 | CC(C)S(=O)(=O)C[C@H](O)[C@H](CC1CCCCC1)NC(=O)[C@@H](NC(=O)[C@H](Cc1ccccc1)NC(=O)OC(C)(C)C)[C@@H](C)OCc1ccccc1 | 
0 | 0 | 0.0055 | CC(C)S(=O)(=O)C[C@H](O)[C@H](CC1CCCCC1)NC(=O)[C@H](Cc1c[nH]cn1)NC(=O)[C@@H](NC(=O)OC(C)(C)C)[C@@H](C)OCc1ccccc1 | 
 |  | 0.005 | CCOC(=O)N[C@@H](Cc1ccccc1)C(=O)N[C@@H](Cc1c[nH]cn1)C(=O)N[C@@H](CC1CCCCC1)[C@@H](O)CS(=O)(=O)C(C)C | 
 |  | 0.004 | CC(C)(C)OC(=O)N[C@@H](Cc1ccccc1)C(=O)N[C@@H](Cc1c[nH]cn1)C(=O)N[C@@H](CC1CCCCC1)[C@@H](O)CSC1CCCCC1 | inhibition (Pepsin A (Sus scrofa) [5]): 9%; inhibition (Cathepsin D (Bos taurus) [6]): 0%
 |  | 0.004 | CC(C)C[C@H](NC(=O)[C@H](Cc1ccccc1)NC(=O)OC(C)(C)C)C(=O)N[C@@H](CC1CCCCC1)[C@@H](O)CS(=O)(=O)C(C)C | 
 |  | 0.004 | CC(C)SC[C@H](O)[C@H](CC1CCCCC1)NC(=O)[C@H](Cc1c[nH]cn1)NC(=O)[C@H](Cc1ccccc1)NC(=O)OC(C)(C)C | inhibition (Pepsin A (Sus scrofa) [5]): 0%; inhibition (Cathepsin D (Bos taurus) [6]): 0%
 |  | 0.0035 | CC(C)S(=O)(=O)C[C@H](O)[C@H](CC1CCCCC1)NC(=O)[C@H](Cc1c[nH]cn1)NC(=O)[C@H](Cc1ccccc1)NC(=O)CC(C)(C)C [listing 3 of 3 here] | 
 |  | 0.003 | CC(C)S(=O)(=O)C[C@H](O)[C@H](CC1CCCCC1)NC(=O)[C@H](Cc1c[nH]cn1)NC(=O)[C@H](Cc1ccccc1)NC(=O)CC(C)(C)C [listing 1 of 3 here] | 
0 | 0 | 0.003 | COc1ccc(C[C@H](NC(=O)OC(C)(C)C)C(=O)N[C@@H](Cc2c[nH]cn2)C(=O)N[C@@H](CC2CCCCC2)[C@@H](O)CS(=O)(=O)C(C)C)cc1 | 
0 | 0 | 0.002 | CC(C)S(=O)(=O)C[C@H](O)[C@H](CC1CCCCC1)NC(=O)[C@H](Cc1c[nH]cn1)NC(=O)[C@H](Cc1ccccc1)NC(=O)OC(C)(C)C | 
